From patent US9109048B2, “Inhibition of tumor growth” (priority 1998, dated 2015)
Values after ≈ are worked out from the molar mass of the structure shown. Ends that are not written are not given here. Peptide text beside a SMILES is read from it. * marks the point of attachment. Acm = CC(=O)NC*

Experiments:
Format in all cases: cell-based
[1] = test system: Escherichia coli ATCC 25922; assay: MIC (minimum inhibitory concentration) test, microdilution; conditions: for Mic E-coli: Table 19
Procedure: (§1) The bacterial strains used were: Escherichia coli ATCC 25922 and Staphylococcus aureus ATCC 25923. All strains were stored at −70° C. The bacteria were grown in 2% Bacto Peptone water (Difco 1807-17-4). All tests were performed with bacteria in mid-logarithmic growth phase. Determination of the minimum inhibitory concentration (MIC) of the peptides for bacterial strains were performed in 1% Bacto Peptone water. A standard microdilution technique with an inoculum of 2×10^6 CFU/ml was used. All assays were performed in triplets. Since the peptides are positively charged and therefore could adhere to the plastic wells, we controlled the actual concentration of the peptides in the solution by HPLC. There was no difference between the concentration of the peptides before or after adding the solution to the plastic wells.

[2] = test system: Staphylococcus aureus ATCC 25923; assay: as above
Procedure: as §1

human red blood cells = assay: Hemolytic assay; parameters: % Hemolysis: dose or concentration left out as unconfirmed
Procedure: The hemolytic activities of the peptides were determined using fresh human red blood cells. 8 ml blood was taken from a healthy person. 4 ml blood was transferred to a polycarbonate tube containing heparin to a final concentration of 10 U/ml, and the remaining 4 ml blood was transferred to a glass tube containing EDTA with final concentration of 15% EDTA. The erythrocytes were isolated from heparin-treated blood by centrifugation in 1500 rpm for 10 min and washed three times with phosphate-buffered saline (PBS) to remove plasma and buffy coat. The cell pellet was resuspended in PBS to make the final volume of 4 ml. The peptide was diluted to a concentration of 2 mg/ml and 0.1 mg/ml. The peptide was further diluted to the concentrations as stated in Table 1. For each tube PBS was added first, then RBCs and peptide solutions. The hematocrit in the blood treated with EDTA was determined after 30 min with Sysmex K-1000, and the resuspended RBCs were diluted into 10% hematocrit. RBCs in PBS (1%) with and without peptides (Table 18) were incubated in a shaker at 37° for 1 hour and then centrifuged at 4000 rpm for 5 min. The supernatant were carefully transferred to new polycarbonate tubes and the absorbance of the supernatant was measured at 540 nm. Baseline hemolysis was hemoglobin released in the presence of PBS, and 100% hemolysis was hemoglobin released in the presence of 0.1% Triton X-100.

YRAWRWAWRWR-NH2 [LFM 17-27 A7R2,8,9W3,4,10Y1 NH2, TYR-ARG-ALA-TRP-ARG-TRP-ALA-TRP-ARG-TRP-ARG-CONH2]
MIC E. coli ([1]; ATCC 25922): 10 µg/mL | MIC S. aureus ([2]; ATCC 25923): 2.5 µg/mL

CC[C@H](C)[C@H](NC(=O)[C@H](CO)NC(=O)[C@@H]1CCCN1C(=O)[C@H](C)NC(=O)CNC(=O)[C@H](CC(C)C)NC(=O)[C@H](CCCCN)NC(=O)[C@H](CCCNC(=N)N)NC(=O)[C@H](CCSC)NC(=O)[C@H](CCCNC(=N)N)NC(=O)[C@H](CCCNC(=N)N)NC(=O)[C@H](CCC(N)=O)NC(=O)[C@H](Cc1c[nH]c2ccccc12)NC(=O)[C@H](CCC(N)=O)NC(=O)[C@H](Cc1ccc(O)cc1)NC(=O)[C@H](CSCNC(C)=O)NC(=O)[C@H](CCCCN)NC(=O)[C@@H](N)CO)C(=O)N[C@H](C(=O)N[C@@H](CSCNC(C)=O)C(=O)N[C@H](C(=O)N[C@@H](CCCNC(=N)N)C(=O)N[C@@H](CCCNC(=N)N)C(=O)N[C@H](C(=O)N[C@@H](CO)C(=O)O)[C@@H](C)O)C(C)C)[C@@H](C)O [LFC (17-41)] (H-SKC(Acm)YQWQRRMRKLGAPSITC(Acm)VRRTS-OH)
Minimum inhibitory concentration (MIC) E. coli ATCC 25922 ([1]; ATCC 25922): 750 µg/mL | Minimum inhibitory concentration (MIC) S. aureus ATCC 25923 ([2]; ATCC 25923): 1000 µg/mL

CSCC[C@H](NC(=O)[C@H](CCCNC(=N)N)NC(=O)[C@H](Cc1c[nH]c2ccccc12)NC(=O)[C@H](CCC(N)=O)NC(=O)[C@H](Cc1c[nH]c2ccccc12)NC(=O)[C@H](CCCNC(=N)N)NC(=O)[C@H](CCCNC(=N)N)NC(=O)[C@@H](N)CSCNC(C)=O)C(=O)N[C@@H](CCCCN)C(=O)N[C@@H](CCCCN)C(=O)N[C@@H](CC(C)C)C(=O)NCC(=O)N[C@@H](C)C(=O)O [LFB 19-31] (H-C(Acm)RRWQWRMKKLGA-OH; N-terminus and C-terminus assumed)
Minimum inhibitory concentration (MIC) E. coli ATCC 25922 ([1]; Table 1, value in parentheses): 120 µM | Minimum inhibitory concentration (MIC) S. aureus ATCC 25923 ([2]; Table 1, value in parentheses): > 150 µM

GIGKFLKKARKFGRAWVRILKKG [Tosmag W16]
MIC E. coli ([1]; ATCC 25922): 10 µg/mL | MIC S. aureus ([2]; ATCC 25923): 5 µg/mL

YRWARWWRR-NH2 [LFM 17-25 A4R2,8,9W3,7Y1NH2]
MIC E. coli ([1]; ATCC 25922): 7.0 µM | MIC E. coli ([1]; Table 12): 10 µg/mL | MIC E. coli ([1]; Table 15): 10.0 µg/mL | EC50 (human red blood cells; red cells of human): > 697 µM | EC 50 (toxicity, hemolysis) (human red blood cells; red cells of human): >1000 µg/mL

CSCC[C@H](NC(=O)[C@H](CCCCN)NC(=O)[C@H](CCCCN)NC(=O)[C@H](CC(C)C)NC(=O)CNC(=O)[C@H](C)N)C(=O)N[C@@H](CCCNC(=N)N)C(=O)N[C@@H](Cc1c[nH]c2ccccc12)C(=O)N[C@@H](CCC(N)=O)C(=O)N[C@@H](Cc1c[nH]c2ccccc12)C(=O)N[C@@H](CCCNC(=N)N)C(=O)N[C@@H](CCCNC(=N)N)C(=O)N[C@@H](CSCNC(C)=O)C(=O)N[C@@H](CCCCN)C(=O)N[C@@H](Cc1ccccc1)C(=O)O [Retro LFB 17-31]
% Hemolysis (human red blood cells): 2.01%

CSCC[C@H](NC(=O)[C@H](CCCNC(=N)N)NC(=O)[C@H](Cc1c[nH]c2ccccc12)NC(=O)[C@H](CCC(N)=O)NC(=O)[C@H](Cc1c[nH]c2ccccc12)NC(=O)[C@H](CCCNC(=N)N)NC(=O)[C@H](CCCNC(=N)N)NC(=O)[C@H](CSCNC(C)=O)NC(=O)[C@@H](N)CCCCN)C(=O)N[C@@H](CCCCN)C(=O)N[C@@H](CCCCN)C(=O)N[C@@H](CC(C)C)C(=O)NCC(=O)N[C@@H](C)C(=O)O [LFB 18-31] (H-KC(Acm)RRWQWRMKKLGA-OH; N-terminus and C-terminus assumed)
MIC E. coli ([1]; ATCC 25922): 80 µg/mL | Minimum inhibitory concentration (MIC) E. coli ATCC 25922 ([1]; Table 1, value in parentheses): 43 µM | MIC S. aureus ([2]; ATCC 25923): 200 µg/mL (≈ 104 µM) | Minimum inhibitory concentration (MIC) S. aureus ATCC 25923 ([2]; Table 1, value in parentheses): 108 µM

CSCC[C@@H](NC(=O)[C@@H](CCCNC(=N)N)NC(=O)[C@@H](Cc1c[nH]c2ccccc12)NC(=O)[C@@H](CCC(N)=O)NC(=O)[C@@H](Cc1c[nH]c2ccccc12)NC(=O)[C@@H](CCCNC(=N)N)NC(=O)[C@@H](CCCNC(=N)N)NC(=O)[C@@H](CSCNC(C)=O)NC(=O)[C@@H](CCCCN)NC(=O)[C@H](N)Cc1ccccc1)C(=O)N[C@H](CCCCN)C(=O)N[C@H](CCCCN)C(=O)N[C@H](CC(C)C)C(=O)NCC(=O)N[C@H](C)C(=O)O [Enantio LFB 17-31]
% Hemolysis (human red blood cells): 3.05%

CSCC[C@H](NC(=O)[C@H](CCCNC(=N)N)NC(=O)[C@H](Cc1c[nH]c2ccccc12)NC(=O)[C@H](CCC(N)=O)NC(=O)[C@H](Cc1c[nH]c2ccccc12)NC(=O)[C@H](CCCNC(=N)N)NC(=O)[C@H](Cc1ccccc1)NC(=O)[C@H](CSCNC(C)=O)NC(=O)[C@H](CCCCN)NC(=O)[C@@H](N)CCCCN)C(=O)N[C@@H](CCCCN)C(=O)N[C@@H](CCCCN)C(=O)N[C@@H](CC(C)C)C(=O)NCC(=O)N[C@@H](C)C(=O)O [LFB F4K1] (H-KKC(Acm)FRWQWRMKKLGA-OH; N-terminus assumed)
MIC E. coli ([1]; ATCC 25922): 20 µg/mL | Minimum inhibitory concentration (MIC) E. coli ATCC 25922 ([1]; Table 1, value in parentheses): 10 µM | MIC S. aureus ([2]; ATCC 25923): 200 µg/mL (≈ 98.2 µM) | Minimum inhibitory concentration (MIC) S. aureus ATCC 25923 ([2]; Table 1, value in parentheses): 100 µM

CSCC[C@@H](NC(=O)[C@@H](CCCCN)NC(=O)[C@@H](CCCCN)NC(=O)[C@@H](CC(C)C)NC(=O)CNC(=O)[C@@H](C)N)C(=O)N[C@H](CCCNC(=N)N)C(=O)N[C@H](Cc1c[nH]c2ccccc12)C(=O)N[C@H](CCC(N)=O)C(=O)N[C@H](Cc1c[nH]c2ccccc12)C(=O)N[C@H](CCCNC(=N)N)C(=O)N[C@H](CCCNC(=N)N)C(=O)N[C@H](CSCNC(C)=O)C(=O)N[C@H](CCCCN)C(=O)N[C@H](Cc1ccccc1)C(=O)O [Retro-Enantio LFB 17-31]
% Hemolysis (human red blood cells): 3.31%

RRWQWRMKKLGA-OH [LFB 20-31]
MIC E. coli ([1]; ATCC 25922): 100 µg/mL | Minimum inhibitory concentration (MIC) E. coli ATCC 25922 ([1]; Table 1, value in parentheses): 62 µM | MIC S. aureus ([2]; ATCC 25923): 200 µg/mL | Minimum inhibitory concentration (MIC) S. aureus ATCC 25923 ([2]; Table 1, value in parentheses): 124 µM

CSCC[C@H](NC(=O)[C@H](CCCNC(=N)N)NC(=O)[C@H](Cc1c[nH]c2ccccc12)NC(=O)[C@H](CCC(N)=O)NC(=O)[C@H](Cc1c[nH]c2ccccc12)NC(=O)[C@H](CCCNC(=N)N)NC(=O)[C@H](CCCNC(=N)N)NC(=O)[C@H](CSCNC(C)=O)NC(=O)[C@H](CCCCN)NC(=O)[C@@H](N)CCCCN)C(=O)N[C@@H](CCCCN)C(=O)N[C@@H](CCCCN)C(=O)N[C@@H](CC(C)C)C(=O)NCC(=O)N[C@@H](C)C(=O)O [LFB K1] (H-KKC(Acm)RRWQWRMKKLGA-OH; N-terminus assumed)
MIC E. coli ([1]; ATCC 25922): 60 µg/mL | Minimum inhibitory concentration (MIC) E. coli ATCC 25922 ([1]; Table 1, value in parentheses): 30 µM | MIC S. aureus ([2]; ATCC 25923): 100 µg/mL (≈ 48.9 µM) | Minimum inhibitory concentration (MIC) S. aureus ATCC 25923 ([2]; Table 1, value in parentheses): 50 µM

PAWRKARRWARRMKKLAA-OH [LFB 14-31 A2,6,10,17R4,11]
EC 50 (toxicity, hemolysis) (human red blood cells; red cells of human): >1000 µg/mL

GIGKFLKKARKWGRAWVRILKKG [Tosmag W12,16]
MIC E. coli ([1]; ATCC 25922): 5 µg/mL | MIC S. aureus ([2]; ATCC 25923): 10 µg/mL

YRMWRWAWRWR-NH2 [LFB 17-27 A7 M3 R2,11 W4,10 Y1 NH2]
MIC E. coli ([1]; ATCC 25922): 5.7 µM | MIC E. coli ([1]; Table 15): 10.0 µg/mL

GIGKFWHWAKKFGKAFVGEIMNS [Mag 2 W 6,8]
MIC E. coli ([1]; ATCC 25922): >100 µg/mL | MIC S. aureus ([2]; ATCC 25923): >100 µg/mL

PAIRKAFRWAWRMLKKAA [LFB 14-31A2,6,10,17F7I3K16L14R4]
Mic E-coli [1]: 2/4 | Mic S. Aureus ([2]; Table 19): 2/4

CSCC[C@H](NC(=O)[C@H](CCCNC(=N)N)NC(=O)[C@H](Cc1c[nH]c2ccccc12)NC(=O)[C@H](CCC(N)=O)NC(=O)[C@H](Cc1c[nH]c2ccccc12)NC(=O)[C@H](CCCNC(=N)N)NC(=O)[C@H](Cc1ccccc1)NC(=O)[C@H](CSCNC(C)=O)NC(=O)[C@H](CCCCN)NC(=O)[C@@H](N)Cc1ccccc1)C(=O)N[C@@H](CCCCN)C(=O)N[C@@H](CCCCN)C(=O)N[C@@H](CC(C)C)C(=O)NCC(=O)N[C@@H](C)C(=O)O [LFB F4] (H-FKC(Acm)FRWQWRMKKLGA-OH; N-terminus and C-terminus assumed)
MIC E. coli ([1]; ATCC 25922): 20 µg/mL | Minimum inhibitory concentration (MIC) E. coli ATCC 25922 ([1]; Table 1, value in parentheses): 10 µM | MIC S. aureus ([2]; ATCC 25923): 200 µg/mL (≈ 97.3 µM) | Minimum inhibitory concentration (MIC) S. aureus ATCC 25923 ([2]; Table 1, value in parentheses): 100 µM

PAWRKAFRWAIRMLKKAA [LFB 14-31A2,6,10,17F7I11K16L14R4]
Mic E-coli [1]: 2/5

FKARRWAWRMKKLGA-OH [LFB A3, 7]
EC 50 (toxicity, hemolysis) (human red blood cells; red cells of human): >1000 µg/mL

PAWRKAFRWAWRMLKKAA-OH [LFB 14-31 A2,6,10,17 F7K16L14R4]
Mic E-coli [1]: 2/4
